Each structure is given as a SMILES string. Counter-ions that a name gives are not always drawn.

The subject of the series is eyes of patients suffering from severe night vision difficulty. Briefly: Example 1 clinical study: mesopic contrast sensitivity with glare, Holladay Automated Contrast Sensitivity System. Conditions: for percentage of eyes with at least a 50% improvement in contrast sensitivity relative to baseline: 0.5% or 1.0% (w/v) once daily, beginning with day 8. Type of series: in vivo, humans. From the text: Sixty patients with normal day vision (i.e., 20/40 or better) but which suffer from severe night vision difficulty were enrolled in the study. During the first period of the study, patients were randomized into three groups. The groups received either placebo, 0.5% (w/v) phentolamine mesylate, or 1.0% (w/v) phentolamine mesylate once daily for 15 days. The patients were observed on days 1, 4, 8, and 15 prior to administering the ophthalmic solution of phentolamine mesylate and then observed again two hours after the ophthalmic solution of phentolamine mesylate was administered. During the second period of the study, all sixty patients were instructed to administer an ophthalmic solution of phentolamine mesylate (1% (w/v)) as needed, but no more than once daily to each eye. The ophthalmic solution of phentolamine mesylate contained: 1% (w/v) phentolamine mesylate, 4% (w/v) mannitol, 3 mM sodium acetate, and water. The placebo was a solution containing 4% (w/v) mannitol, 3 mM sodium acetate, and water.
Patients in the study satisfied the following criteria: (1) 18-45 years of age and suffer from severe night vision difficulty, (2) 0.3 log improvement at two of five spatial frequencies (1.5, 3, 6, 12, and 18 cycles per degree) in at least one eye before and during illumination of the contralateral eye, using the Holladay Automated Contrast Sensitivity System test under mesopic room illumination with glare, and (3) photopic distance high-contrast visual acuity (corrected or uncorrected) of 20/40 or better in at least one eye.
Patients were to meet with a clinician for evaluation on study days 1, 4, 8, 15, and a post-dosing follow-up evaluation three or more days after administering the last dose in the second period. When patients met with the clinician, the following observations were made by the clinician: (1) mesopic contrast sensitivity with and without glare using the Holladay Automated Contrast Sensitivity System test, (2) mesopic distance high-contrast visual acuity using E-ETDRS Acuity Testing, (3) mesopic distance low-contrast visual acuity using E-ETDRS Acuity Testing, (4) photopic distance high-contrast visual acuity using E-ETDRS Acuity Testing, and (5) eye redness using the Cornea and Contact Lens Research Unit (CCLRU) Redness Grading Scale developed by the School of Optometry, University of New South Wales, but that the grading scale was as follows: (0) none, (0.5) very slight, (1) slight, (2) moderate, and (3) severe.
The primary efficacy endpoint is an increase of at least 0.3 log (50% or more improvement) in mesopic contrast sensitivity with glare at two or more frequencies at 1.5, 3, 6, 12, and 18 cycles per degree, measured with Holladay Automated Contrast Sensitivity System methodology.

Take `Cc1ccc(N(CC2=NCCN2)c2cccc(O)c2)cc1` [Phentolamine Mesylate, phentolamine mesylate]: the “percentage of eyes with at least a 50% improvement in contrast sensitivity relative to baseline” value (tested prior to that day's dose (FIG. 2)) is reported as “greater than 20%” and the “percentage of eyes with at least a 50% improvement in contrast sensitivity relative to baseline” value (tested two hours after that day's dose (FIG. 1)) is on record as “greater than 20%”. In addition, the pharmacokinetic half-life result (from percentage of eyes with at least 50% improvement in contrast sensitivity after the last dose, second period, 1% (w/v) (FIG. 4A)) was “approximately two”. Besides, the “percentage of eyes with at least a 50% improvement in contrast sensitivity, change over time” value (measured prior to that day's administration, from day 15 to day 32 (FIG. 3)) is given as “increased”. Further, the “efficacy with repeated dosing (contrast sensitivity)” value (once daily during the 15-day study period (FIGS. 1 and 2)) is reported as “no diminution in efficacy was observed”.

These data come from US11000509B2, “Methods and compositions for daily ophthalmic administration of phentolamine to improve visual performance” (Ocuphire Pharma, Inc., priority 2013, dated 2021).
